Laboratory results taken from patent US7217710B2, “Substituted pyrazolopyrimidines” (SmithKline Beecham Corporation, priority 2001, dated 2007).

Experiments:
[1] = target: T1, GST-TIE2 (intracellular domains of human TIE2) (Homo sapiens, UniProt Q02763); assay: TIE-2 Enzyme Assay (TIE2-E2), LANCE method; type: biochemical; settings: for IC50: read-out: TIE2 PIC50 TIE2-E2 assay
T1 construct: made in house
Summary of the method: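 GST-tagged human TIE2 intracellular domain (aa 762–1104), preactivated 2 h with 80 μM ATP, then 5 nM enzyme run 2 h at room temperature with 1 μM biotinylated D1–15 peptide, 80 μM ATP, HEPES pH 7.4, 2.4% DMSO. Phosphotyrosine detected by LANCE (Eu anti-pTyr/streptavidin-APC) after EDTA stop; IC50 by nonlinear regression, reported as pIC50.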

[2] = target: T2, catalytic domain of human VEGFR3 (Homo sapiens, UniProt P35916, H890Q); assay: VEGFR-3 Homogenous Time-Resolved Fluorescence Assay (VEGFR-3-HTRF); type: biochemical; settings: for IC50: read-out: VEGFR3 PIC50 VEGFR-3-HTRF assay
T2 construct: made in house; host or cells: Sf9 insect cells (baculovirus, pFastBac1)
Excerpt: VEGFR—3-Homogenous Time-Resolved Fluorescence Assay (VEGFR-3-HTRF)
This assay assesses Vascular Endothelial Growth Factor 3 (VEGFR3) tyrosine kinase inhibitory activity in substrate phosphorylation assays. The assay examines the ability of small molecule organic compounds to inhibit the tyrosine phosphorylation of a peptide substrate.
The substrate phosphorylation assays use the VEGFR3 catalytic domain, which is expressed in Sf. 9 insect cells as an amino-terminal GST-tagged fusion protein. The catalytic domain of human VEGFR3 (AA residues #819–1298 based upon GenBank Accession #XM003852) is cloned by PCR from human Placenta Marathon Ready cDNA (Clontech). The PCR product is subcloned into pFastBac1 vector containing an N-terminal GST tag. The resulting pFB/GST/VEGFR3icd vector is used to generate a recombinant baculovirus for protein expression. The VEGFR3 catalytic domain translated sequence is:
Autophosphorylation allows enzymes to be fully activated prior to addition to peptide substrates. The assays are performed using enzyme that has been activated by autophosphorylation via preincubation in buffer with ATP and magnesium. Activated enzyme is then diluted and added to titrated compound and the substrate mix.
200 nM VEGFR3 enzyme is activated for 45 minutes at room temperature by incubating the enzyme in buffer containing 100 mM HEPES (pH7.2), 75 μM ATP, 0.3 mM DTT, 0.1 mg/mL BSA, and 10 mM MgCl2. After activation, VEGFR3 is diluted 100-fold into 2× dilution buffer: 200 mM HEPES (pH 7.5), 0.2 mg/mL BSA, 0.6 mM DTT. 20 μL of the diluted enzyme mix is added to 20 μL of 2× substrate mix (150 μM ATP, 20 mM MgCl2, 0.72 μM biotinylated peptide) in the assay plates. Final assay conditions are: 100 mM HEPES (pH 7.2), 75 μM ATP, 10 mM MgCl2, 0.1 mg/mL BSA, 0.3 mM DTT, 0.36 μM biotinylated peptide, and 1 nM VEGFR3 enzyme. Assay plates are incubated for 1.5 hours at room temperature before the addition of 30 μL 100 mM EDTA to the wells to stop the enzymatic reaction. 40 μL/well of HTRF mix are then added to the assay plates for the detection of phosphorylated substrate. Final assay concentrations are: 100 mM HEPES (pH7.2), 0.1 mg/mL BSA, 15 nM streptavidin-labeled allophycocyanin (PerkinElmer), and 1 nM europium-labeled anti-phosphotyrosine antibody (PerkinElmer). Assay plates are left unsealed and are counted in a Wallac Multilabel Counter 1420 (PerkinElmer).
The data for dose responses are plotted as % Control calculated with the data reduction formula 100*(U1–C2)/(C1–C2) versus concentration of compound where U is the unknown value, C1 is the average control value obtained for DMSO , and C2 is the average control value obtained for 0.1M EDTA. Data are fitted to the curve described by: y=((Vmax*x)/(K+x)) where Vmax is the upper asymptote and K is the IC50.

[3] = target: T3, TIE2 intracellular domain/c-fms extracellular domain (TIE2/c-fms) chimeric protein (Homo sapiens, UniProt Q02763); assay: TIE-2 Autophosphorylation Assay (TIE2-C); type: cell-based; settings: TIE2/c-fms expressing mouse 3T3 cells
T3 construct: fused on or other part: c-fms (CSF1R) extracellular domain in place of TIE2's own ectodomain; it serves as the capture handle for the anti-c-fms ELISA; P07333 (Macrophage colony-stimulating factor 1 receptor)
Protocol: TIE-2 Autophosphorylation Assay (TIE2-C)
The TIE-2 autophosphorylation assay uses an ELISA method and a TIE2 intracellular domain/c-fms extracellular domain (TIE2/c-fms) chimeric protein expressing mouse 3T3 cell line. This assay measures the autophosphorylation level of TIE2 protein expressed in cells. The cells are cultured in 96 well plates and grown in high glucose DMEM containing 10% serum at 37° C. in a humidified 10% CO2, 90% air incubator. On the day of the assay, the serum containing medium is removed from the cells and replaced with serum free medium for one hour. The test compound (diluted from a 10 mM stock in DMSO, final DMSO concentration is 0.1%) is incubated with TIE2/c-fms expressing cells for 30 minutes in serum free DMEM. Intrinsic cellular dephosphorylation of the receptor is blocked by the addition of the tyrosine phosphatase inhibitor, sodium orthovanadate, from a 100 mM aqueous stock to a final concentration of 1 mM. The culture media is removed by aspiration and the cells incubated for 30 to 60 mins on ice with lysis buffer containing 137 mM NaCl, 2 mM EDTA, 10% glycerol, 1 mM sodium ortho vanadate, 1×tyrosine phosphatase inhibitor cocktail (Sigma) and complete protease inhibitor cocktail (Roche) in 20 mM Tris-HCl (pH8.0). The cell extracts are transferred into Rat anti-c-fms antibody (Zymed-clone 12-2d6) ([…]) coated 96 well plates and incubated for 12 hrs at 4 degrees. The extracts are removed by aspiration and the plate, washed in a buffer comprising PBS, 0.05% Tween-20, 0.05% NP-40 and 5% SuperBlock (Pierce) followed by incubation with an HRP (horseradish peroxidase) conjugated anti-phosphotyrosine antibody, (Upstate Biotech) The plates are again washed with the aforementioned wash buffer and the colorimetric HRP substrate, TMB is added. The reaction progresses for 90 seconds and is stopped with the addition of 2M H2SO4. The optical density at 450 nm derived from HRP catalyzed TMB is measured with a plate reader capable of reading at the appropriate wavelength (e.g. SpectroMax from Molecular Dynamics). The percent inhibition of activity is calculated relative to non-vanadate treated control wells. The concentration of test compound that inhibits 50% of activity (IC50) is interpolated using nonlinear regression (Levernberg-Marquardt) and the equation, y=Vmax (1−x/(K+x))+Y2, where “K” is equal to the IC50.

[4] = target: T4, GST-VEGFR2 (Homo sapiens, UniProt P35968); assay: VEGF-R2 Enzyme Assay (VEGF-E2), LANCE method; type: biochemical; settings: for IC50: read-out: VEGFR2 PIC50 VEGFR-E2 assay
T4 construct: GST-VEGFR2, baculovirus expressed recombinant constructs of the intracellular domains; made in house
T4 sequence (P35968 786-1356 limits assumed): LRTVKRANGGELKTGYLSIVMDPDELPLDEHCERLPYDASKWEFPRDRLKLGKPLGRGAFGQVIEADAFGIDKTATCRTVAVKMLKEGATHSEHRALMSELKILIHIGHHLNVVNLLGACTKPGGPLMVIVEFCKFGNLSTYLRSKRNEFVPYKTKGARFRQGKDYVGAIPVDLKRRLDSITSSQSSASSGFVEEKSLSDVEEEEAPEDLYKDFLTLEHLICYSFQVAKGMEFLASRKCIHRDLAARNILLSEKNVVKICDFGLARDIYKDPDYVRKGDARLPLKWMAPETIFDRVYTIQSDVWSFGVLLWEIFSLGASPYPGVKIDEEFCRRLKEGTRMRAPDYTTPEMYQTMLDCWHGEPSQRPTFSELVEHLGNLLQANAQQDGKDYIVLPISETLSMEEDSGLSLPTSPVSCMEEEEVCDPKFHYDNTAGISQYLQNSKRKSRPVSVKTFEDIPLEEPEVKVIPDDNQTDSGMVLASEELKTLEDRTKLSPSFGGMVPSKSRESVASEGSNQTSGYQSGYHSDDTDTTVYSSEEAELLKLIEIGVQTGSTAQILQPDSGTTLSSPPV

T2 sequence (P35916 with tags, fused parts or gaps isoform P35916-1 H890Q): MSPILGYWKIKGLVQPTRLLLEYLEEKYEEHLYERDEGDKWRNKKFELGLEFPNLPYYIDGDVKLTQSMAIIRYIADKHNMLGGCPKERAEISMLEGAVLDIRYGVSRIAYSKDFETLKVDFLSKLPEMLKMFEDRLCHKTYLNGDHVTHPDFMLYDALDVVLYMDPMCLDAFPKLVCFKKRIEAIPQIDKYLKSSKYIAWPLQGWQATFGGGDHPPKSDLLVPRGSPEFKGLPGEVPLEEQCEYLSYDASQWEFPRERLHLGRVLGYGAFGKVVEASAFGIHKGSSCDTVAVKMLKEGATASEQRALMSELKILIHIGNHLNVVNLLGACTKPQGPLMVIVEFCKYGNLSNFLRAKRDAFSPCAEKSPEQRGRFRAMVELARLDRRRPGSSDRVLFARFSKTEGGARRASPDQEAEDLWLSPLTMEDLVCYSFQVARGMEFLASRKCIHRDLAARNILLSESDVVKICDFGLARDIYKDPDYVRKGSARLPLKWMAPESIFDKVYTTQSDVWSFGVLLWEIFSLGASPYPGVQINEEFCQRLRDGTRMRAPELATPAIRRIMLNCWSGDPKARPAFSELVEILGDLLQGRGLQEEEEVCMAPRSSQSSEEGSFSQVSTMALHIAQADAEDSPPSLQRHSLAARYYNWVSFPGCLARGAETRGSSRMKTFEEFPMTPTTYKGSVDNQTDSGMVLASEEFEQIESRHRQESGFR
T3 sequence (Q02763 whole entry, change not shown, the tested form may be a part): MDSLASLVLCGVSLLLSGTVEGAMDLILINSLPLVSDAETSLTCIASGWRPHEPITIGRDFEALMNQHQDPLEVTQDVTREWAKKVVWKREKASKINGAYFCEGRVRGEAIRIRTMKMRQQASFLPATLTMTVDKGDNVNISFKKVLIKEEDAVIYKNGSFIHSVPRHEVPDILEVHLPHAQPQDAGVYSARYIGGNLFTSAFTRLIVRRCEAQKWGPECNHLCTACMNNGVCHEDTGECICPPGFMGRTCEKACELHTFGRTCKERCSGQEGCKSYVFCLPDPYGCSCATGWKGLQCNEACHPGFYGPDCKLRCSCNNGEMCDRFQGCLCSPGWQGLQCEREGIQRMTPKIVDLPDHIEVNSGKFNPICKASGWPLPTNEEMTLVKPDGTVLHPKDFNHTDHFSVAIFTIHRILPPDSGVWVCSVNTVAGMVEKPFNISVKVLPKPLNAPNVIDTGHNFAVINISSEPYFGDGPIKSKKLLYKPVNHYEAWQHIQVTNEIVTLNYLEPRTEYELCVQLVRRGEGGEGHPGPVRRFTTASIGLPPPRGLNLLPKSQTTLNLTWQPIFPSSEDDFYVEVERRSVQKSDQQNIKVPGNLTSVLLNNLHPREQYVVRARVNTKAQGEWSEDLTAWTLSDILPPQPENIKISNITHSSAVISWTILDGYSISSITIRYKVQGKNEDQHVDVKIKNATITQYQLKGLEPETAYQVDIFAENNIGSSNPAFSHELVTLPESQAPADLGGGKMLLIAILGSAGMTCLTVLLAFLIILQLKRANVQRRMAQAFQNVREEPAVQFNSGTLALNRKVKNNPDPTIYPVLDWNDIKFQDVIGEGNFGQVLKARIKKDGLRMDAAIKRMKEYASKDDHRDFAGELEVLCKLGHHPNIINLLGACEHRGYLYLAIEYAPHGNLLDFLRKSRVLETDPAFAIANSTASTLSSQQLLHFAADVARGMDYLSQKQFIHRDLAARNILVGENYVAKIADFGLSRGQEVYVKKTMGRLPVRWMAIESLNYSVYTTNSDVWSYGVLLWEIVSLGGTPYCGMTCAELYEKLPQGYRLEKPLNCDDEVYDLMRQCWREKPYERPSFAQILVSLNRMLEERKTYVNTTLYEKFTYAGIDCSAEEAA
T1 sequence (Q02763 762-1104): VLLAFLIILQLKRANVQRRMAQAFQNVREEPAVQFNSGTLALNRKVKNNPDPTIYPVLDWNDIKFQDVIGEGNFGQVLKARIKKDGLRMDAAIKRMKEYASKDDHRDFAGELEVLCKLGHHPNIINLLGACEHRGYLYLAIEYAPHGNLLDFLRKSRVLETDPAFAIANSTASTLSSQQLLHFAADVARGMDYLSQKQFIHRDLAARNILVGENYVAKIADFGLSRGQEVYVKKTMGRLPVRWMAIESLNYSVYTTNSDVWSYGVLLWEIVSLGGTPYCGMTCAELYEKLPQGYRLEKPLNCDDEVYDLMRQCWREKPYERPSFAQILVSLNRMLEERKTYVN

For `Cn1nc(-c2ccc(NC(=O)Nc3cc(C(F)(F)F)ccc3F)cc2)c2cnc(NCCc3c[nH]cn3)nc21` [Example 145], the IC50 [1] was 39.8 to 100 nM, the IC50 [2] was 1000 to 10000 nM and the IC50 [3] was at least 300 nM.

In the case of `Cn1nc(-c2ccc(NC(=O)Nc3cc(C(F)(F)F)ccc3F)cc2)c2cnc(NCCCO)nc21` [Example 92, 1-(2-Fluoro-5-trifluoromethyl-phenyl)-3-{4-[1-methyl-6-(3-hydroxy-propylamino)-1H-pyrazolo[3,4-d]pyrimidin-3-yl]-phenyl} urea], the IC50 [1] is reported as at most 39.8 nM, the IC50 [4] is reported as 1000 to 10000 nM and the IC50 [2] is reported as 1000 to 10000 nM. It also gave an IC50 [3] of under 100 nM.

Work on `CC1CCCCN1CCCNc1ncc2c(-c3ccc(NC(=O)Nc4cc(C(C)(C)C)on4)c(F)c3)nn(C)c2n1` (stereo not shown) [Example 135] yielded an IC50 [1] of at most 39.8 nM and an IC50 [3] of at least 300 nM.

`CC1CCCCN1CCCNc1ncc2c(-c3ccc(NC(=O)Nc4cc(C(F)(F)F)ccc4F)cc3)nn(C)c2n1` (stereo not shown) [Example 85] gave an IC50 [1] of at most 39.8 nM, an IC50 [2] of over 10000 nM and an IC50 [3] of at least 300 nM.

Work on `CCN(CC)CCCNc1ncc2c(-c3ccc(NC(=O)Nc4cc(C(C)(C)C)on4)c(F)c3)nn(C)c2n1` [Example 136] yielded an IC50 [1] of at most 39.8 nM and an IC50 [3] of at least 300 nM.

With `Cn1cncc1CCNc1ncc2c(-c3ccc(NC(=O)Nc4cc(C(F)(F)F)ccc4F)cc3)nn(C)c2n1` [Example 146, 1-(2-Fluoro-5-trifluoromethyl-phenyl)-3-{4-[(1-methyl-6-(2-[3-methyl-3H-imidazol-4-yl)-ethylamino)-1H-pyrazolo[3,4-d]pyrimidin-3-yl]-phenyl]} urea] the IC50 [1] was 39.8 to 100 nM, the IC50 [2] was 100 to 1000 nM and the IC50 [3] was at least 300 nM.

For `Cn1nc(-c2ccc(NC(=O)Nc3cc(C(F)(F)F)ccc3F)cc2)c2cnc(NCCCCNS(C)(=O)=O)nc21` [Example 97, N-[4-(3-{4-[3-(2-Fluoro-5-trifluoromethyl-phenyl)-ureido]-phenyl} -1-methyl-1H-pyrazolo[3,4-d]pyrimidin-6-ylamino)-butyl]-methanesulfonamide], the IC50 [1] was 39.8 to 100 nM, the IC50 [4] was over 10000 nM and the IC50 [2] was 1000 to 10000 nM.

Molecule `CC(C)n1nc(-c2ccc(NS(=O)(=O)c3cccc(Cl)c3Cl)cc2)c2cnc(NCCN3CCOCC3)nc21` [Example 77, 2,3-Dichloro-N-{4-(1-isopropyl-6-(2-morpholin-4-yl-ether)-1H -pyrazolo[3,4-d]pyrimidin-3-yl}-phenyl}-benzenesulfonamide] has an IC50 [1] of 100 to 1000 nM, an IC50 [4] of 1000 to 10000 nM and an IC50 [2] of 1000 to 10000 nM.

Work on `CN1CCCC1CCNc1ncc2c(-c3ccc(NC(=O)Nc4cc(C(C)(C)C)on4)c(F)c3)nn(C)c2n1` (stereo not shown) [Example 137] yielded an IC50 [1] of at most 39.8 nM and an IC50 [3] of at least 300 nM.

With `CCN(CC)CCCNc1ncc2c(-c3ccc(NC(=O)Nc4cc(C(F)(F)F)ccc4F)cc3)nn(C)c2n1` [Example 88, 1-(2-Fluoro-5-trifluoromethyl-phenyl)-3-{4-[1-methyl-6-(3-diethylamino-propylamino)-1H-pyrazolo[3,4-d]pyrimidin-3-yl]-phenyl} urea] the IC50 [1] was at most 39.8 nM and the IC50 [3] was at least 300 nM.

For `Cn1nc(-c2ccc(NS(=O)(=O)c3cccc(Cl)c3Cl)cc2)c2cnc(NCCCCO)nc21` [Example 113, 2,3-Dichloro-N-{4-[1-methyl-6-(4-hydroxy-butylamino)-1H-pyrazolo[3,4-d]pyrimidin-3-yl]-phenyl}-benzenesulfonamide], the IC50 [1] was 1000 to 10000 nM, the IC50 [4] was 1000 to 10000 nM and the IC50 [2] was 1000 to 10000 nM.

Work on `Cn1nc(-c2ccc(NS(=O)(=O)c3cccc(Cl)c3Cl)cc2)c2cnc(NCCN3CCNC3=O)nc21` [Example 109, 2,3-Dichloro-N-(4-{1-methyl-6-[2-(2-oxo-imidazolidin-1-yl)-ethylamino]-1H-pyrazolo[3,4-d]pyrimidin-3-yl]-phenyl}-benzenesulfonamide] yielded an IC50 [1] of over 10000 nM, an IC50 [4] of 1000 to 10000 nM and an IC50 [2] of 100 to 1000 nM.

`CC(=O)Nc1ncc2c(-c3ccc(NS(=O)(=O)c4cccc(Cl)c4Cl)cc3)nn(C)c2n1` [Example 71] showed an IC50 [1] of 1000 to 10000 nM, an IC50 [4] of 1000 to 10000 nM and an IC50 [2] of 100 to 1000 nM.

With `Cn1nc(-c2ccc(NC(=O)Nc3cc(C(F)(F)F)ccc3F)cc2)c2cnc(NCCCCCO)nc21` [Example 82] the IC50 [1] was 39.8 to 100 nM, the IC50 [4] was over 10000 nM and the IC50 [2] was over 10000 nM.

For `Cn1nc(-c2ccc(NC(=O)Nc3cc(C(C)(C)C)on3)c(F)c2)c2cnc(NCCCN3CCOCC3)nc21` [Example 134], the IC50 [1] was at most 39.8 nM, the IC50 [4] was over 10000 nM and the IC50 [3] was 100 to 300 nM.

`CN1CCCC1CCNc1ncc2c(-c3ccc(NC(=O)Nc4cc(C(F)(F)F)ccc4F)cc3)nn(C)c2n1` (stereo not shown) [Example 89, 1-(2-Fluoro-5-trifluoromethyl-phenyl)-3-{4-[1-methyl-6-[2-(1-methyl-pyrrolidin-2-yl)-ethylamino]-1H-pyrazolo[3,4-d]pyrimidin-3-yl]-phenyl} urea] showed an IC50 [1] of at most 39.8 nM and an IC50 [3] of at least 300 nM.

With “1-(Chloro-trifluoromethyl-phenyl)-3-{4-[methyl-(2-morpholin-4-yl -ethylamino)-1H-pyrazolo[3,4-d]pyrimidin-3-yl]-phenyl}-urea [Example 37]” the “TIE2 PIC50 TIE2-E2 assay” value [1] was “+++ (+++ = PIC50 = 7.00 to less than 7.40)”, the “VEGFR2 PIC50 VEGFR-E2 assay” value [4] was “−− (−− = PIC50 less than 5.00)” and the “VEGFR3 PIC50 VEGFR-3-HTRF assay” value [2] was “+ (+ = PIC50 = 5.00 to less than 6.00)”.

`Cn1nc(-c2ccc(NC(=O)Nc3cc(C(C)(C)C)on3)cc2)c2cnc(NCCN3CCOCC3)nc21` [Example 35] gave an IC50 [1] of 39.8 to 100 nM, an IC50 [4] of 1000 to 10000 nM and an IC50 [2] of 100 to 1000 nM.

In the case of `CN1CCN(CCCNc2ncc3c(-c4ccc(NC(=O)Nc5cc(C(C)(C)C)on5)c(F)c4)nn(C)c3n2)CC1` [Example 138], the IC50 [1] is reported as at most 39.8 nM and the IC50 [3] is reported as 100 to 300 nM.
